Laboratory results from US12295949B2, “Treatment of the gastrointestinal tract with dimeric naphthalimide compounds” (Alumend, LLC, priority 2022, dated 2025).
Where “and” joins values, the source holds several entries; their conditions need not be identical. Equal values may be shown once. Entries after “also recorded” stand apart in the source; their conditions may differ.

Tests used:
[1] = system: esophageal tissue in a healthy swine in vivo esophagus; test: Crosslink healthy in vivo esophagus at two power levels (delivery, soak, balloon dilatation, light activation); parameters: species or system Yorkshire Cross swine
Text: More specifically, this study evaluated the logistics for esophageal placement of compound I(a) with the use of contrast media, the crosslinking effects of compound I(a), and acute retention of dilation in an in vivo swine model.
An Olympus GIF-140 Endoscope was used in this study. Fluoroscopy was utilized throughout the procedures for confirmation of equipment placement, sample delivery, and removal.
A 60-65 kg Yorkshire Cross (18P118) was used to establish the logistical techniques of the procedure. The animal was fasted for 24 hours prior to the procedure commencing. Post anesthesia swine 18P118 was positioned supinely (on its back) with the surgical table flat. A lavage was performed to flush any remaining contents from the esophagus and stomach. The endoscope was lubricated with a dime size amount of water based Astroglide and inserted into the mouth, passed by the epiglottis, around the pharyngeal diverticulum, through the esophagus and into the stomach. At insertion, the esophagus was partially open, (<5 mm diameter) circular and smooth. The esophagus formed around the catheter and the endoscope inserted instruments, ranging from 4 mm to 12.74 mm in diameter. The endoscope incremental measurements were used to determine the endoscope placement from the front incisor (zero reference point) to the lower esophageal sphincter (71 cm) with the designated working area being between 30 and 60 cm. The endoscope was maintained in the esophagus for the entire procedure.
Using the endoscope, the Edwards Fogarty occlusion catheter and the Vista Brite tip guide catheter were guided down the esophagus and positioned at the 45 cm mark. Positioning them simultaneously, then holding during inflation prevented slippage of the catheters during balloon inflation. The mucosa is loosely attached to the muscularis; the movement of any device in contact with the mucosa influenced the positioning of all inserted devices. […]
Once the volume required to fill the treatment zone was determined the contrast medium was removed. […]

[2] = system: esophageal strictures generated by endoscopic mucosal resection (EMR); test: Esophageal stricture (endoscopic mucosal resection) formation and treatment with compound I(a) plus PTA with light in minipigs; format: in vivo, Yucatan minipigs
Text: Five healthy Yucatan minipigs (20-28 kg) were enrolled in the study. For the EMR procedure, each animal was monitored and maintained under anesthesia throughout the duration of the procedure. Each animal was placed in a supine position and elevated to a 5-12 degrees reverse Trendelenburg position, to aid in keeping gastric fluids from coming into the EMR procedural area. A water base lubricant (Astroglide) was used to aid at every insertion of the endoscope.
The upper GI was intubated and surveyed for abnormalities and gastric fluid content via a GIF-XQ140 endoscope. Of the five animals, three animals underwent lavage to remove excess fluid and debris from the esophagus and gastric lumen by washing with saline and suctioning out fluid/debris. A fluoroscopic esophagogram was taken of the target area with the endoscope in place (FIG. 1). The distal tip was measured with a calibrated digital caliper and the measurement was used to calibrate the fluoroscopic measurement tool. […] All representative fluoroscopic and endoscopic imagery are from animal 19P39 unless otherwise stated.
The scope tip was positioned within ±3 cm of the target site. Suction was applied through the gastroscope to visualize the esophageal mucosa at the distal attachment (DA) and to visualize the injection range to capture approximately three-fourths of the esophageal lumen at the target site. The needle from the disposable EMR kit was inserted through the endoscope biopsy channel and into the endoscope field of view (FIG. 2A). The injector slider was pushed until it clicked into position to extend the needle from the sheath. A 10 mL syringe with saline was connected to the injector port. Suction was applied and the injector needle advanced to pierce the target mucosa and to inject a bolus of saline (FIG. 2B). The target area was injected with 0.5 mL to 2.0 mL of saline multiple times to reach a coverage of approximately three-fourths circumference of the target area. Following injections suction was released, and the needle withdrawn from the biopsy channel for insertion of the snare.
The snare was used to remove the blistered mucosal tissue from the treated area. The snare was retracted and inserted into the biopsy channel and advanced into the field of view with the distal sheath. The snare was connected to the electrosurgical unit (Olympus PSD-20). The electrosurgical unit has two settings, one setting is CUT, which is used to cut the tissue and the other setting is COAG, which is used to cauterize the tissue. The snare loop tip was slowly extended approximately 5-10 mm beyond the DA, and CUT was activated marking the base of the tissue bolus by cauterizing the mucosa (FIG. 3A). Suction was used to draw the tissue bolus partially into the DA, and CUT was activated to separate the target mucosa from the submucosa/muscularis. The snare loop was also used as a lasso to remove the partially resected mucosa by cinching the snare closed around the resection (FIG. 3B) and activating the CUT pedal and COAG pedal as needed. The tissue that was not easily removed with the snare was removed with a coagrasper (FIG. 3C). The natural contraction movements of the esophagus posed some difficulty with maintaining a perfect depth to only exposing the submucosal tissue and to maintaining a consistent resection length throughout the resected area. For some animals there were portions of muscularis tissue exposed and some spiraling to the resected area due to the esophageal contractions (FIG. 4). Following the EMR a post procedural fluoroscopic esophagogram (FIG. 5) was taken and the animal recovered from anesthesia.
The EMR in the target area span approximately 270 degrees circumference and less than 2 cm wide.
On Day 21, post stricture induction, animals underwent anesthesia for evaluation of stricture formation and for stricture treatment. No lavage was needed to the esophagus or gastric lumen to complete the treatment on any of the animals. […]

[3] = system: ex-vivo healthy swine arterial tissue; test: Fluorescence microscopy of ex-vivo arterial tissue cross-sections after delivery of 10-8-10 Dimer; format: in vitro ADME; conditions: 2 mg/mL for five minutes, 60x fluorescence microscopy
Protocol: FIGS. 32A and B are fluorescence microscopy images of ex-vivo healthy swine arterial tissue cross-section delivered with 2 mg/mL 10-8-10 Dimer for five minutes; wherein (A) is a fluorescence image at 60× magnification and (B) is at 60× magnification with fluorescence and greyscale overlay. FIGS. 32A and B are 60× fluorescence microscopy images of ex-vivo healthy swine arterial tissue cross-sections treated with 2 mg/mL 10-8-10 Dimer for five minutes; wherein (A) is a fluorescence image and (B) is a fluorescence and greyscale overlay.

[4] = system: ex-vivo healthy swine esophageal tissue; test: Fluorescence microscopy of ex-vivo esophageal tissue cross-section after delivery of 10-8-10 Dimer; format: in vitro ADME
Protocol: FIGS. 34A and B are fluorescence microscopy images of ex-vivo healthy swine esophageal tissue cross-section delivered with 4 mg/mL 10-8-10 Dimer for five minutes; wherein (A) is a fluorescence image at 4× magnification, and (B) is at 4× magnification with the fluorescence and greyscale overlay). FIGS. 34A and B are 4× fluorescence microscopy images of ex-vivo healthy swine esophageal tissue cross-section treated with 4 mg/mL 10-8-10 Dimer for five minutes; wherein (A) is a fluorescence image, and (B) is the fluorescence and greyscale overlay. As shown therein, The penetration of 10-8-10 Dimer into ex-vivo esophageal tissue is also vastly different from arterial tissue penetration. […] Treatment with 2 mg/ml of 10-8-10 Dimer was ineffective. In contrast to the treatment of arterial tissue, the 10-8-10 Dimer was efficacious at a concentration 100% greater.

[5] = Study Day 21, fluoroscopic, PTA + compound I(a) w/light, one row per animal
[6] = Study Day 49 necropsy, cross-section of esophagus, compound I(a) + PTA w/ light, one row per animal
[7] = 4 mg/mL for five minutes, 4x fluorescence microscopy

NCCOCCOCCNc1ccc2c3c(cccc13)C(=O)N(CCOCCOCCN1C(=O)c3cccc4c(NCCOCCOCCN)ccc(c34)C1=O)C2=O [compound I(a)]
crosslinking of the esophageal tissue (esophagus open at treated sites) ([1]; 10 mg/mL, 10 min soak, balloon dilatation, laser 74 mW/cm2 (site A) or 32 mW/cm2 (sites B, C) for 2 minutes): indications of potential crosslinking were seen at multiple sites; also recorded: opening at sites A, B and C indicate a crosslinking of the esophageal tissue
penetration of esophageal tissue (yellow coloration of the tissue) ([1]; 8 mL of compound I(a) 10 mg/mL in PBS, 10 minutes soak, treatment sites A, B, C, endoscopic observation): penetration was observed; also recorded: yellow coloration of the tissue is indicative of compound I(a) penetration; also recorded: yellow coloration of the esophagus confirmed delivery
irritation of the esophagus on endoscopy or necropsy examination ([1]; post treatment, entire length of the esophagus, slight irritation at site C attributed to TAPAS catheter): No significant irritation
penetration at stricture site (yellow coloration of the esophagus) ([2]; 10 mg/ml in PBS, 10 minutes soak, Day 21): Yellow coloration of the esophagus was observed indicating penetration
abnormalities of the entire esophagus via endoscope imaging ([2]; Day 21 post treatment, compound I(a) plus PTA balloon with light animals, other than the stricture area): no abnormalities were seen
re-epithelialization (pathology report) ([2]; Day 49 microscopic evaluation, compound I(a) plus PTA balloon with light): complete
Diameter of Stricture (mm) 0 min. post TX ([2]; Study Day 21, fluoroscopic, PTA + compound I(a) (10 mg/ml in PBS, 10 min soak) w/light 74 mW/cm2, one row per animal): 15.88 mm and 13.0 mm and 12.4 mm
Diameter of Stricture (mm) 30 min. post TX [2, 5]: 17.13 mm and 7.5 mm and 14.8 mm
Diameter of Stricture (mm) 60 min. post TX [2, 5]: 13.8 mm and 8.5 mm and 10.9 mm
Length of Stricture (mm) Endoscopic scan post TX ([2]; Study Day 21, post treatment, PTA + compound I(a) w/light, one row per animal): 30 mm (2×) and 17 mm
Length of Stricture (mm) Fluoroscopic ([2]; Study Day 49 (four weeks post treatment), compound I(a) + PTA w/light, one row per animal): 12.6 mm (2×) and 12.8 mm
Stricture Length [2, 6]: 3-11 millimeters and 5 millimeters and 25 millimeters
Stricture Width [2, 6]: 12 millimeters and 10 millimeters and 7 millimeters
Diameter of Stricture Post TX ([2]; Table 3, Study Day 49 (four weeks post treatment), fluoroscopic, compound I(a) + PTA w/light, one row per animal): 4.9 mm and 6.0 mm and 7.4 mm
Diameter of Stricture Post TX ([2]; Table 10, post treatment, 29 days apart, compound I(a) + PTA w/light, one row per animal, in mm): 6.0 and 7.4 and 4.9
percent gain at the stricture site post-treatment ([2]; all compound I(a) plus PTA balloon with light treated animals, Table 10): increase in percent gain
% Stricture Diameter Change Before and Post Treatment ([2]; before and post treatment 29 days apart, compound I(a) + PTA w/light, one row per animal): 22.4% and 94.7% and 169%
restoring the esophagus to a healthier diameter and movement ([2]; compound I(a) plus PTA balloon with light, in comparison with PTA balloon only treatment (19P38)): better success
retention of dilation ([2]; four weeks after treatment with compound I(a) crosslinking): demonstrated retention of dilation
penetration into arterial tissue (fluorescence) [3]: penetrated through the arterial intima and into the media
treatment of esophageal tissue at 2 mg/ml ([4]; 2 mg/ml): ineffective
fluorescence in the submucosa or muscularis [4, 7]: no significant fluorescence
location of 10-8-10 Dimer fluorescence in esophageal tissue [4, 7]: preponderance of 10-8-10 Dimer fluorescence is in the epithelium
treatment of esophageal tissue at higher concentration ([4]; concentration 100% greater than for arterial tissue (4 mg/mL vs 2 mg/mL)): efficacious
